Source: PMC4564450, “Oral and inhaled p38 MAPK inhibitors: effects on inhaled LPS challenge in healthy subjects” (European Journal of Clinical Pharmacology, 2015)

Legend:
[1] = Plasma pharmacokinetics (sparse sampling); type: in vivo, human; conditions: for Plasma concentration: PF-03715455 20 mg inhaled; for concentration at 23 h / concentration at 30.5 h: human, plasma, po, 30 mg, PH-797804 30 mg oral; for concentration at 23 h: 23 h post dose; for concentration at 30.5 h: 30.5 h post dose
[2] = Drug concentration in sputum supernatant; type: in vivo, human; conditions: study 2, ten subjects, PF-03715455 inhaled dose, PH-797804 oral dose
[3] = tested on: IL-6, MPO, MCP-1 and MIP-1β in sputum supernatant; assay: Inhaled LPS challenge: sputum supernatant protein biomarkers; type: in vivo, human; conditions: for Sputum IL-6, mean / Sputum MCP-1, mean / Sputum MIP-1β, mean / Sputum MPO, mean: post LPS
Procedure: A baseline sputum sample was obtained within 14 days of the first study period when subjects were administered a single dose of randomised treatment. […] Induced sputum was obtained 6 h later to coincide with the maximal inflammatory response caused by inhaled LPS. A washout period of at least 21 days followed, with subjects returning after 14 days of the washout period for induced sputum sampling; this was performed to ensure that the total cell count, total neutrophil count and total macrophage count were within the range of −80 to +100 % of the screening values. […] If these criteria were not met, then up to two repeat visits to obtain sputum were allowed, with at least 4 days between sputum inductions. The next randomised treatment day was scheduled at least 4 days after sputum induction and was identical to the first treatment day.
For each challenge, a 1-mg vial of lyophilised LPS (Escherichia coli serotype O26:B6, ref. L-2654, Sigma-Aldrich, Dorset, UK) was diluted with 4 mL of 0.9 % w/v sodium chloride. The reconstitution produced a 0.25 mg/mL solution, of which 2 mL was placed into the pre-calibrated dosimeter pot and administered via five inhalations from a breath-activated dosimeter (Mefar dosimeter MB3, Brescia, Italy). Each inhalation was performed over 3 s with a 6-s breath hold.
Sputum was induced using normal saline after inhalation of salbutamol, and processing was performed using dithiothreitol (DTT) as previously described [20]. The supernatants were stored at −80 °C for later analysis, while cells were used to produce cytoslides (Cytospin 4, Shandon, Runcorn, UK) for differential cell counting and immunocytochemistry. Cytoslides for differential cell count were fixed in methanol (Sigma) and then stained with Rapi-Diff® (GCC Diagnostics, Sandyhurst, UK) or Wright-modified Giemsa (Accustatin WG-18, Sigma-Aldrich); a minimum of 400 non-squamous cells were counted and differential cell counts obtained as percentage of total non-squamous cells. Cell viability was analysed by trypan blue exclusion. Cytoslides with % squamous cell counts <20 % were deemed to be of acceptable quality for differential cell counting. Unfixed cytoslides were wrapped in aluminium foil and stored frozen at −80 °C for immunocytochemistry.
In studies 1 and 2, sputum supernatants were analysed for interleukin 6 (IL-6), myeloperoxidase (MPO), monocyte chemotactic protein-1 (MCP-1) and macrophage inflammatory protein-1β (MIP-1 β), using electrochemiluminescent immunoassays (ECLIA) or enzyme-linked immunosorbent assays (ELISA); the manufacturers are listed in the online supplement. In study 3, sputum supernatants were analysed for IL-6, MCP-1 and MIP-1β by the same method.

[4] = tested on: p38 MAPK; conditions: no reference given; read-out: enzyme IC50; cited from earlier work
[5] = cited from earlier work
[6] = study 2, PH-797804 30 mg oral or PF-03715455 20 mg inhaled

CC(C)(C)c1cc(NC(=O)NCc2ccccc2Sc2ccc3nnc(-c4ccccc4SCCO)n3c2)n(-c2ccc(O)c(Cl)c2)n1 [PF-03715455]
Plasma concentration ([1]; study 2, 1.5 h post dose): 472.6 (116.4) pg/mL
Plasma concentration ([1]; study 2, 6.5 h post dose): 110.6 (29.7) pg/mL
geometric mean sputum concentration [2]: 20 nM
sputum concentration, range [2]: 4 to 73 nM
sputum supernatant IL-6, MPO, MCP-1 and MIP-1β levels compared to placebo [3, 6]: no effects
Sputum IL-6, mean [3, 6]: 91.67 pg/mL
Sputum MCP-1, mean [3, 6]: 115.38 pg/mL
Sputum MIP-1β, mean [3, 6]: 396.35 pg/mL
Sputum MPO, mean [3, 6]: 937.04 ng/mL
IC50 [4]: 0.005 to 0.05 nM

CNC(=O)c1ccc(C)c(-n2c(C)cc(OCc3ccc(F)cc3F)c(Br)c2=O)c1 [PH-797804]
concentration at 23 h ([1]; study 1): 38.9 ng/mL
concentration at 30.5 h ([1]; study 1): 37.8 ng/mL
concentration at 23 h ([1]; study 2): 56.8 ng/mL
concentration at 30.5 h ([1]; study 2): 49.2 ng/mL
geometric mean sputum concentration [2]: 4 nM
sputum concentration, range [2]: 2 to 7 nM
Sputum IL-6, mean ([3]; study 1, PH-797804 30 mg oral): 29.66 pg/mL
Sputum MCP-1, mean ([3]; study 1, PH-797804 30 mg oral): 155.07 pg/mL
Sputum MIP-1β, mean ([3]; study 1, PH-797804 30 mg oral): 330.54 pg/mL
Sputum MPO, mean ([3]; study 1, PH-797804 30 mg oral): 669.06 ng/mL
sputum supernatant cytokine levels compared to placebo ([3]; study 1, PH-797804 30 mg oral, trends towards significance for MCP-1 and MPO): did not significantly inhibit
sputum supernatant IL-6, MPO, MCP-1 and MIP-1β levels compared to placebo [3, 6]: significantly reduced
Sputum IL-6, mean [3, 6]: 69.02 pg/mL
Sputum MCP-1, mean [3, 6]: 133.41 pg/mL
Sputum MIP-1β, mean [3, 6]: 609.10 pg/mL
Sputum MPO, mean [3, 6]: 485.28 ng/mL
improvement of FEV1 ([5]; COPD patients treated for 6 weeks): 93 mL
pulmonary function ([5]; COPD trial): clinically significant improvement
tolerability in COPD trials ([5]; oral, up to 24-week duration): well tolerated
